Measurements as given in patent US5525599A, “7-substituted-amino-3-substituted-3-cephem-4-carboxylic acids” (Eli Lilly and Company, priority 1993, dated 1996).
Values after ≈ are worked out from the molar mass of the structure shown. Read-outs that look alike come from different tables or passages of the source.

Tests used:
[1] = test system: 33 strains of methicillin-resistant staphylococci; test: Geometric mean MICs against 33 strains of methicillin-resistant staphylococci; assay type: cell-based
Protocol: (§1) Test compounds were diluted to an appropriate range of concentrations in 0.1M phosphate buffer (pH 7), incorporated into Mueller-Hinton agar (difco) supplemented with 1% Bacto-Supplement C (Difco) at 50° C. and allowed to solidify in petri dishes. Fresh overnight cultures of test bacteria were diluted to approximately 1×10^4 cells/mL aand applied in […] to the surface of the agar plates. The inoculated plates were incubated overnight at 35° C. in ambient air. MIC endpoints were recorded as the lowest antibiotic concentrations that inhibited the development of visible bacterial growth on the plates.
It is known that resistance to methicillin in staphylococci is often of the heterogeneous type and therefore not easily detected. […] (Goldstein, F. W.; Acar, J. J. Antimicrob. Chemother. […], 27, 549). […] J.; Drake T. A.; Rusnak, M. G.; Sande, M. A. J. Infect. Dis. 1984, 149, 894).

[2] = test system: methicillin-resistant staphylococci; details: in words; Frongillo 1986; cited from earlier work
[3] = test system: methicillin-resistant staphylococci; details: in words; Chambers 1984; cited from earlier work
[4] = test system: methicillin-resistant staphylococci; details: in words; Frongillo 1984; cited from earlier work
[5] = test system: other Gram(-) bacteria; test: In vitro activity (MIC), agar dilution method; assay type: cell-based
[6] = test system: Enter. faecalis (2041); test: In vitro activity (MIC), agar dilution method; assay type: cell-based; details: Enterococcus faecalis; Enter. faecalis (2041), agar dilution; read-out: MIC
Protocol: (§2) Cephalosporins 9a-o were assayed against a broad array of Gram-positive and Gram-negative bacteria in Mueller-Hinton agar by the 2-fold serial dilution method, (Kirst, H. A.; J. Antibiot. 1982, 35, 1675).
as §1

[7] = test system: E. coli (EC14); test: In vitro activity (MIC), agar dilution method; assay type: cell-based; details: Escherichia coli; E. coli (EC14), agar dilution; read-out: MIC
Protocol: as §2, §1

[8] = test system: Staph. aureus (X400); test: In vitro activity (MIC), agar dilution method; assay type: cell-based; details: Staphylococcus aureus; Staph. aureus (X400), methicillin-resistant strain, agar dilution; read-out: MIC
Protocol: as §2, §1

[9] = test system: K. pneumonia (X26); test: In vitro activity (MIC), agar dilution method; assay type: cell-based; details: Klebsiella pneumoniae; K. pneumonia (X26), agar dilution; read-out: MIC
Protocol: as §2, §1

[10] = test system: K. pneumonia (KAE); test: In vitro activity (MIC), agar dilution method; assay type: cell-based; details: Klebsiella pneumoniae; K. pneumonia (KAE), agar dilution; read-out: MIC
Protocol: as §2, §1

[11] = test system: Staph. epiderm. (222); test: In vitro activity (MIC), agar dilution method; assay type: cell-based; details: Staphylococcus epidermidis; Staph. epiderm. (222), methicillin-resistant strain, agar dilution; read-out: MIC
Protocol: as §2, §1

[12] = test system: Enter. faecium (X66); test: In vitro activity (MIC), agar dilution method; assay type: cell-based; details: Enterococcus faecium; Enter. faecium (X66), agar dilution; read-out: MIC
Protocol: as §2, §1

[13] = test system: Staph. aureus (V41); test: In vitro activity (MIC), agar dilution method; assay type: cell-based; details: Staphylococcus aureus; Staph. aureus (V41), agar dilution; read-out: MIC
Protocol: as §2, §1

[14] = test system: Staph. epiderm. (270); test: In vitro activity (MIC), agar dilution method; assay type: cell-based; details: Staphylococcus epidermidis, methicillin-resistant strain
Protocol: as §2, §1

[15] = test system: E. coli (N10); test: In vitro activity (MIC), agar dilution method; assay type: cell-based; details: Escherichia coli; E. coli (N10), agar dilution; read-out: MIC
Protocol: as §2, §1

[16] = test system: H. influenzae (C.L.); test: In vitro activity (MIC), agar dilution method; assay type: cell-based; details: Haemophilus influenzae; H. influenzae (C.L.), agar dilution; read-out: MIC
Protocol: as §2, §1

[17] = test system: Staph. aureus (X1.1); test: In vitro activity (MIC), agar dilution method; assay type: cell-based; details: Staphylococcus aureus; Staph. aureus (X1.1), agar dilution; read-out: MIC
Protocol: as §2, §1

[18] = test system: K. pneumonia (X68); test: In vitro activity (MIC), agar dilution method; assay type: cell-based; details: Klebsiella pneumoniae; K. pneumonia (X68), agar dilution; read-out: MIC
Protocol: as §2, §1

[19] = test system: Strept. pyogenes (C203); test: In vitro activity (MIC), agar dilution method; assay type: cell-based; details: Streptococcus pyogenes; Strept. pyogenes (C203), agar dilution; read-out: MIC
Protocol: as §2, §1

[20] = test system: H. influenzae (76); test: In vitro activity (MIC), agar dilution method; assay type: cell-based; details: Haemophilus influenzae; H. influenzae (76), agar dilution; read-out: MIC
Protocol: as §2, §1

[21] = MICs against 4 strains of methicillin-resistant staphylococci; assay type: cell-based, Staphylococcus aureus and Staphylococcus epidermidis; details: Staphylococcus aureus, read-out: minimal inhibitory concentrations (MICs)
Protocol: as §2, §1

[22] = test system: Staph. aureus (S13E); test: In vitro activity (MIC), agar dilution method; assay type: cell-based; details: Staphylococcus aureus
Protocol: as §2, §1

[23] = test system: E. coli (TEM); test: In vitro activity (MIC), agar dilution method; assay type: cell-based; details: Escherichia coli
Protocol: as §2, §1

SMILES | MIC [5] | MIC [6] | MIC [7] | MIC [8] | MIC [9] | MIC [10] | MIC [11] | MIC [12] | MIC [13] | MIC [14] | MIC [15] | MIC [16] | MIC [17] | MIC [18] | MIC [19] | MIC [20] | MIC [22] | also measured
Cc1onc(-c2ccccc2)c1C(=O)N[C@@H]1C(=O)N2[C@@H]1SC(C)(C)[C@@H]2C(=O)O [Oxacillin, reference compound] |  |  |  |  |  |  |  |  |  |  |  |  |  |  |  |  |  | MIC ([1]; read-out: Geometric mean MIC, MHA + 4% NaCl, 33 strains, 35° C.): 97 µg/mL; MIC ([1]; read-out: Geometric mean MIC, MHA, 33 strains): 49 µg/mL (≈ 122 µM)
Cn1nnnc1SCC1=C(C(=O)O)N2C(=O)[C@@H](NC(=O)[C@H](O)c3ccccc3)[C@H]2SC1 [Cefamandole] |  |  |  |  |  |  |  |  |  |  |  |  |  |  |  |  |  | MIC ([1]; MHA + 4% NaCl, 33 strains, 35° C., read-out: Geometric mean MIC): 13 µg/mL; MIC ([1]; MHA, 33 strains, read-out: Geometric mean MIC): 6.8 µg/mL (≈ 14.7 µM); clinical use for treatment of infections caused by methicillin-resistant staphylococci [2]: successfully used clinically for the treatment of infections caused by methicillin-resistant staphylococci; efficacy in animal models versus vancomycin [3]: poorer efficacy than vancomycin in animal models; activity against methicillin-resistant staphylococci [4]: among the most active β-lactam antibiotics against methicillin-resistant staphylococci
O=C(Cc1csc(-c2c(O)cccc2O)n1)N[C@@H]1C(=O)N2C(C(=O)O)=C(Cl)CS[C@H]12 [9f, [6R-[6A, 7B (R*)]]-3-Chloro-7-[[[2-(2,6-dihydroxyphenyl)-4-thiazolyl]acetyl]amino]-8-oxo-5-thia-1-azabicyclo[4.2.0]oct-2-ene-2-carboxylic Acid] | > 64 µg/mL | 8 µg/mL (≈ 17.1 µM) | 32 µg/mL (≈ 68.4 µM) | 16 µg/mL (≈ 34.2 µM) | 0.5 µg/mL (≈ 1.07 µM) | 128 µg/mL (≈ 274 µM) | 2 µg/mL (≈ 4.27 µM) | 8 µg/mL (≈ 17.1 µM) | 16 µg/mL (≈ 34.2 µM) | 8 µg/mL (≈ 17.1 µM) | 32 µg/mL (≈ 68.4 µM) | 1 µg/mL (≈ 2.14 µM) | 16 µg/mL (≈ 34.2 µM) | 32 µg/mL (≈ 68.4 µM) | 0.06 µg/mL (≈ 0.128 µM) | 1 µg/mL (≈ 2.14 µM) |  | 
CC(=O)OCC1=C(C(=O)O)N2C(=O)[C@@H](NC(=O)Cc3csc(-c4c(O)cccc4O)n3)[C@H]2SC1 [9e, [6R-[6A,7B(R*)]]-3-[(Acetyloxy)methyl]-7-[[[2-(2,6-dihydroxyphenyl)-4-thiazolyl]acetyl]amino]-8-oxo-5-thia-1-azabicyclo[4.2.0]oct-2-ene-2-carboxylic Acid] | > 64 µg/mL | 4 µg/mL (≈ 7.91 µM) | 16 µg/mL (≈ 31.6 µM) | 16 µg/mL (≈ 31.6 µM) | 0.5 µg/mL (≈ 0.989 µM) | 128 µg/mL (≈ 253 µM) | 0.5 µg/mL (≈ 0.989 µM) | 4 µg/mL (≈ 7.91 µM) | 16 µg/mL (≈ 31.6 µM) | 4 µg/mL (≈ 7.91 µM) | 64 µg/mL (≈ 127 µM) | 4 µg/mL (≈ 7.91 µM) | 8 µg/mL (≈ 15.8 µM) | 16 µg/mL (≈ 31.6 µM) | 0.03 µg/mL (≈ 0.0593 µM) | 4 µg/mL (≈ 7.91 µM) | 4 µg/mL (≈ 7.91 µM) | MIC [21]: ≤ 16 µg/mL
CO/N=C(\C(=O)N[C@@H]1C(=O)N2C(C(=O)O)=C(COC(C)=O)CS[C@H]12)c1csc(N)n1 [Cefot, Cefotaxime, reference compound] |  | 1 µg/mL (≈ 2.2 µM) | 0.015 µg/mL (≈ 0.0329 µM) | 128 µg/mL (≈ 281 µM) | 0.008 µg/mL (≈ 0.0176 µM) | 1 µg/mL (≈ 2.2 µM) | 2 µg/mL (≈ 4.39 µM) | 128 µg/mL (≈ 281 µM) | 2 µg/mL (≈ 4.39 µM) | 8 µg/mL (≈ 17.6 µM) | 0.06 µg/mL (≈ 0.132 µM) | 0.008 µg/mL (≈ 0.0176 µM) | 1 µg/mL (≈ 2.2 µM) | 0.015 µg/mL (≈ 0.0329 µM) | 0.008 µg/mL (≈ 0.0176 µM) | 0.008 µg/mL (≈ 0.0176 µM) | 64 µg/mL (≈ 141 µM) | MIC [23]: 0.008 µg/mL (≈ 0.0176 µM)
